From a melting point compilation (Tetko et al.; mined from patent text by program, amines drawn as free bases though some values may be those of a salt)

SMILES | melting point [°C]
N#Cc1cc(N)ccc1N | 85 to 87
COc1ccc2c(c1)c(-c1cc3nccnc3[nH]1)cn2Cc1ccccc1 | 240 to 244
CC(C)OC(=O)Nc1ccc(N)c(N)c1 | 108 to 110
CN1C(=O)N(CC(=O)O)C(=O)C1(C)C | 130 to 132
CSc1ccnc(Oc2cc(C#N)cc(C#N)c2)n1 | 237
COCn1ccnc1C(O)(c1ccccc1)c1ccccc1C(C)(C)C (stereo not given) | 149 to 150
CC(C)(C)OC(=O)NOCC(=O)NNC(=O)c1cc(S(=O)(=O)O)cc(OCc2ccccc2)c1OCc1ccccc1 | 103 to 105
Cc1ccc(NC(=O)C(C)(C)C)c(-c2cccc(-c3cc(C)ccc3NC(=O)C(C)(C)C)n2)c1 | 181 to 184
CCN(CC)C(=O)C(C)N1C(=O)C(NC(=O)OCc2ccccc2)N=C(c2ccccc2)c2ccccc21 (stereo not given) | 170 to 171
O=c1[nH]c2ncc(-c3ccc(-c4nc[nH]n4)nc3)nc2n1CC1CCOCC1 | 353 to 356
CCOC(=O)c1c2n(c3ccc(Cl)cc3c1=O)CCS2 | 321
Cc1cccc2c1N(CC(=O)N1CC3CCC(CC3)C1)C(=O)C(NC(=O)Nc1cccc(-c3nnn[nH]3)c1)N=C2c1ccccc1F (stereo not given) | 210 to 213
CC(C)OC(=O)c1ncn2c1CN(C)C(=O)c1cc(F)ccc1-2 | 243 to 244
O=C1CCC(N2C(=O)c3cccc(CNC(=O)Nc4ccc5c(c4)OCO5)c3C2=O)C(=O)N1 (stereo not given) | 216 to 218
CC(=O)OC1CSC(Oc2cncc(-c3ccncc3)c2)C(OC(C)=O)C1OC(C)=O (stereo not given) | 138
CC1(C)C2CC(=O)C(CCC(=O)O)C1C2 (stereo not given) | 45
CCCCNc1ccc(-c2nc(C(=O)Nc3nccs3)c(-c3cccc(OC)c3)[nH]2)cc1 | 228 to 231
Cc1cc(C)c(C)c(OCC(=O)O)c1 | 129 to 130
CSc1ncc(C(=O)NC2CC2)c(Nc2ccc3cn[nH]c3c2)n1 | > 270
CC(=O)OCC1OC(Oc2cc(C)cc(O)c2C(C)=O)C(OC(C)=O)C(OC(C)=O)C1OC(C)=O (stereo not given) | 140 to 142
CCOC(=O)/C(Cl)=N/Nc1ccc(OC)cc1 | 87 to 89
CC1(C)OC(C=Cc2ccc(Cl)cc2)=CC1=O | 91 to 92
CCOC(=O)c1cnc2ccc3nc(Cl)sc3c2c1O | > 300

SMILES | melting point [°C]
CCc1cc(NC(=O)c2ccc(OC)c(OC)c2)ccc1C(C)(C)CNC(C)=O | 203 to 206
C=CCc1cc(C#N)ccc1O | 70
CSc1nc(-c2ccc(Cl)cc2)c(CCC(=O)O)o1 | 183 to 184
CC12CCC(=O)C([N+](=O)[O-])=C1CCC1C2CCC2(C)C(O)CCC12 (stereo not given) | 158 to 160
COc1ccc(-c2cc(Cl)cc3c2NC(CN)CO3)c(Cl)c1 (stereo not given) | 105
Cc1ccc(C)n1NC(=O)COc1ccc(C2=NNC(=O)NC2C)cc1Cl (stereo not given) | 189 to 190
O=C(O)CCC(=O)c1cc(Br)cc(Br)c1 | 137 to 138
Cc1ccnc2c1nc(C)n2-c1ccccc1 | 117 to 119
Fc1ccc(C(OCCN2CCN(C(c3ccc(F)cc3)c3ccc(F)cc3)CC2)c2ccc(F)cc2)cc1 | 87 to 88
O=C(CCCl)c1ccc(O)c(Cl)c1Cl | 109 to 111
CCN(C(=O)C(=O)O)c1ccc2c(C)cc(=O)oc2c1 | 142
COc1cc(OC)c(NC(=O)[C@H]2[C@H](c3ccccc3)C2(C)C)cc1Cl (relative stereo) | 160 to 162
CS(=O)(=O)NCCn1nnnc1S | 131 to 132
CN(C)c1nc2sc3c(NCCN4CCOCC4)ncnc3c2c2c1CCC(C)(C)C2 | 173 to 175
CNc1nc(Cc2cc(OC)c(OC)c(OC)c2)nc2sc(C#N)c(C)c12 | 194 to 195
CN(c1c(Cl)ccc2cc(C(=O)O)[nH]c12)S(=O)(=O)c1cccs1 | 286 to 288
O=C(NCc1ncc(C(F)(F)F)cc1Cl)c1c(Cl)ccnc1Cl | 122 to 124
CCCCc1ncc(CC(NC(=O)CC)C(=O)O)n1Cc1ccccc1Cl (stereo not given) | 203 to 205
CCCSc1ccc(NS(=O)(=O)c2cccs2)c2[nH]c(C(=O)OCC)cc12 | 150 to 151
CCc1nn(C2CCCC2)c2cc(C(=O)OC)ccc12 | 106 to 109
FC(F)(F)c1ccc(-c2nc(Oc3csc(C(F)(F)F)c3)cc(Oc3csc(C(F)(F)F)c3)n2)cc1 | 93 to 95
CCOC(=O)c1cc2c(nc1C)C(=Cc1ccc(OC(C)=O)cc1)CCC2 | 112
CN1C(=O)C2(COc3cc4c(cc32)OCCO4)c2c(NC(=O)NC3CCCC3)cccc21 (stereo not given) | 133 to 135

The remaining lines, values ahead:

melting point [°C] | SMILES
144 to 146 | CCCNCC1Cc2ccc(-c3ccc(=O)[nH]n3)cc2C1 (stereo not given)
176 to 177 | C=CCn1c(=O)c2cnc(Nc3ccc(N4CCN(C)CC4)cc3)nc2n(C(C)C)c1=O
56.6 to 57.1 | FC(F)(F)Oc1ccc(C2NCCc3ccccc32)cc1 (stereo not given)
222 to 224 | Cc1ccc(C2c3c(C)c(N4C(=O)c5ccccc5C4=O)c(C)c(C)c3OC2(C)C)cc1 (stereo not given)
143 | CCC1Nc2c(cc(C)nc2C)N1c1ccc(CCNC(=O)NS(=O)(=O)c2ccc(C)cc2)cc1 (stereo not given)
189 to 193 | N=C(N)c1ccc2cc(OC(=O)CCCC3CCCCC3)ccc2c1
141 to 143 | COc1nc2cc([N+](=O)[O-])c(C)c(C(=O)N3CCCNCC3)c2nc1OC
314 to 316 | CC1(C)CC(=O)Nc2cc(-c3nc4ccccc4[nH]3)ccc21
282 to 284 | Cn1c(=O)[nH]c2nc3ccc(OCCCC(=O)NC4CCCCC4)cc3cc21
193 to 196 | Cc1cc(Cl)cc(Cl)c1N1CCn2c1nc1c(Cl)ccc(C(O)(C3CC3)C3CC3)c12
254 to 255 | O=C(O)c1ccc(-c2nnc(-c3ccc(C(F)(F)F)cc3)o2)c([N+](=O)[O-])c1
88 to 89 | COc1ccc(Cl)cc1S(=O)(=O)N(C)c1ccccc1
118 to 120 | CC(C)N1Cc2cc(S(C)(=O)=O)ccc2N(CCN2CC=C(c3c[nH]c4cc(F)ccc34)CC2)S1(=O)=O
192 to 193 | COc1ccc(C(=O)N2c3ccccc3C(N3CCCc4cc(NC(=O)OC(C)(C)C)ccc43)CC2C)cc1OC (stereo not given)
90 to 92 | O=C1C(CCO)Oc2ccc(Cl)cc2N1Cc1cccc(Cl)c1 (stereo not given)
100 | CNc1ccc2ccccc2c1-c1c(P(c2ccccc2)c2ccccc2)ccc2ccccc12
117 to 118 | COC(=O)CCC(=O)c1ccc(-c2ccc(Cl)s2)cc1
> 154 | CC(=O)Nc1cc(C(C)(C)C)c(SC2=C(O)CC(CCc3ccc(O)cc3)(C3CCCCC3)OC2=O)cc1C (stereo not given)
159 to 162 | COc1ccc2cc(-c3cnc(Cc4ccc5ccccc5c4)o3)ccc2c1
185 to 187 | CN1C2CCCC1CC(NC(=O)c1cccc3oc(-c4ccc(Cl)cc4)nc13)C2 (stereo not given)
33 to 35 | CC(C)C(OCc1ccc(Cl)cc1)c1cncnc1 (stereo not given)
130 to 132 | COC(=O)c1ccc(-c2ccc(-c3ccccc3)c(-c3ccc4c(c3)C(C)(C)CCC4(C)C)c2)cc1C
178 | Cc1ccc(-c2ccc3c(c2)CC[C@H]2N(C)C(=O)CC[C@]32C)cc1
137 to 138 | CC(C)CN1CCc2ccc(C(=O)CCC(=O)N3CCC(c4ccc(Cl)cc4)CC3)cc2CC1
109 to 113 | CC(C)OC(=O)c1ccc(NC(=O)N2CC(CCCC#N)C(c3ccc(Cl)cc3)=N2)cc1 (stereo not given)

melting point [°C] | SMILES
53 to 55 | CC(C)(C)c1ccc(CNc2nc(Nc3cccc(C(F)(F)F)c3)nc(C(F)(F)F)n2)cc1
205 to 207 | O=C(O)c1ccc(Cl)cc1Nc1cccc(Br)c1
169 to 171 | CC1CCC(n2ncc(-c3ccc(S(C)(=O)=O)cc3)c(-c3ccc(F)cc3)c2=O)C1 (stereo not given)
97 to 98 | Fc1ccccc1-c1cc2ccccc2[nH]1
64 to 65 | Cc1ccc(S(=O)(=O)OCC2CCCc3scnc32)cc1 (stereo not given)
200 to 201 | O=C(Nc1ccc(-n2nc(C(F)(F)F)cc2C(F)(F)F)cc1)c1ccc(C(F)(F)F)cc1C(F)(F)F
236 | Nc1ccc(-c2nnsc2-c2ccc(N)cc2)cc1
65.8 | OC(COc1ccc(F)c(F)c1)CN1CCC(NCc2nc3ccccc3s2)CC1 (single isomer, unassigned; (+))
118 to 120 | CC(C)(O)c1ccc(CNC(=O)c2cccnc2Oc2ccc3c(c2)OCO3)cc1
117 to 121 | CCOC(=O)C1CN(S(=O)(=O)c2ccc3cc(Br)ccc3c2)CCN1C(=O)C1CCN(c2ccncc2)CC1 (stereo not given)
154 to 155 | Cn1c(CNCC2(C)COC2)cc2cc(NC(=O)c3ccc(OCC4CC4)cc3)ccc21
152 to 153 | CN1C(=O)CC(c2ccccc2)C1C(O)C#Cc1ccccc1 (stereo not given)
127 to 130 | Cc1ccc(S(=O)(=O)N2CCC[C@H]2C(=O)N[C@@H](Cc2ccccc2)C(=O)NOCc2ccccc2)cc1
92 to 93 | Cc1ccc(-c2cc[nH]c2)cc1
169 to 170 | CCOC(=O)Cc1ccc(NC(=O)C(COc2cccc(Cl)c2)NS(=O)(=O)c2ccc(I)cc2)cc1 (racemic)
219 to 220 | CCCc1c(C(=O)NCc2ccc3c(Br)c(OCc4nnn[nH]4)ccc3c2)cnn1-c1ccccc1
211 to 212 | NCc1ccc(N2CC(C(=O)O)OC2=O)cc1 (stereo not given)
129 to 131 | CCOC(=O)C(C)(C)Oc1ccc(CNC(=O)c2sc(-c3ccc(C(C)C)cc3)nc2C)cc1C
75 | Cc1c(C(=O)N(C)c2ccccc2)nc2n1CCc1ccccc1C2OC1CCN(C)CC1 (stereo not given)
110 to 111 | CCOCc1nc2cnc3cc(OCc4ccccc4)ccc3c2n1CC1COC(C)(C)O1 (stereo not given)
98 to 101 | O=C(O)CCc1cc(OCc2ccccc2)nn1Cc1ccc(Cl)cc1Cl
144 to 146 | CC(OC(C)c1ccc(-c2ccc(Cl)cc2)cc1)C(=O)O (stereo not given)
175 to 176 | CC(C)(C)OC(=O)N1CCN(CCSc2nc3ccccc3[nH]2)CC1
143 to 145 | O=[N+]([O-])c1ccc(CCN2CCN(c3ccc([N+](=O)[O-])cc3)CC2)cc1
